Measurements reported in patent US20220008359A1, “COMBINATION ANTI-CANCER PRODUCTS AND METHODS” (priority 2020, published 2022).
Marks after values point to notes of the source that are not given here.

Tested on: MCF7 cells
Test: Immuno-staining of protein expression and protein phosphorylation, MCF7 cells
Format: cell-based
Parameters: ATM level / P-AMPKa level / P-317 (ULK1) level / ATG5 level / HDAC8 level / BIM level: scale not given here
Description: ZR75-1 and MCF7 cells were treated with vehicle control, GZ17-6.02, Palbociclib or the drugs combined for 3 hours and for 6 hours. Cells were fixed in place and immuno-staining performed with in house validated antibodies to detect protein expression and protein phosphorylation.

Work on `CC(=O)c1c(C)c2cnc(Nc3ccc(N4CCNCC4)cn3)nc2n(C2CCCC2)c1=O` [PALBO, Palbociclib] yielded an AKT level (MCF7, 3 h) of 100, an AMPKa level (MCF7, 3 h) of 102 and an ATG5 level (MCF7, 3 h) of 107. For the same compound, the ATG13 level (MCF7, 3 h) was 100, the ATM level (MCF7, 3 h) was 100 and the BAK level (MCF7, 3 h) was 95. For the same compound, the BAX level (MCF7, 3 h) was 103, the BCL-XL level (MCF7, 3 h) was 99 and the BIM level (MCF7, 3 h) was 109. The Beclin1 level (MCF7, 3 h) was 113#, the CD95 level (MCF7, 3 h) was 101 and the CHOP level (MCF7, 3 h) was 112. For the same compound, the “Cyclin D level” value (MCF7, 3 h) was 104, the “Cyclin E level” value (MCF7, 3 h) was 104 and the ER level (MCF7, 3 h) was 99. It also gave an ERBB1 level (MCF7, 3 h) of 99, an ERBB2 level (MCF7, 3 h) of 100 and an ERBB3 level (MCF7, 3 h) of 101. For the same compound, the ERK1/2 level (MCF7, 3 h) was 100, the ERK2 level (MCF7, 3 h) was 100 and the ERRB4 level (MCF7, 3 h) was 99. The FAS-L level (MCF7, 3 h) was 108, the GRP78 level (MCF7, 3 h) was 114# and the HDAC1 level (MCF7, 3 h) was 100. The HDAC2 level (MCF7, 3 h) was 94, the HDAC3 level (MCF7, 3 h) was 97 and the HDAC4 level (MCF7, 3 h) was 99. It also gave an HDAC5 level (MCF7, 3 h) of 99, an HDAC6 level (MCF7, 3 h) of 100 and an HDAC7 level (MCF7, 3 h) of 100. The HDAC8 level (MCF7, 3 h) was 100, the HDAC9 level (MCF7, 3 h) was 99 and the HDAC10 level (MCF7, 3 h) was 99. It also gave an HDAC11 level (MCF7, 3 h) of 100, an IDO1 level (MCF7, 3 h) of 97 and a JAK2 level (MCF7, 3 h) of 99. The JNK1/2 level (MCF7, 3 h) was 100, the LATS1/2 level (MCF7, 3 h) was 100 and the MCL1 level (MCF7, 3 h) was 95. For the same compound, the MHCA level (MCF7, 3 h) was 102, the NEDD4 level (MCF7, 3 h) was 96 and the NFkB level (MCF7, 3 h) was 101. The ODC level (MCF7, 3 h) was 103, the “P-89 (TAZ) level” value (MCF7, 3 h) was 105 and the “P-109 (YAP) level” value (MCF7, 3 h) was 106. For the same compound, the “P-127 (YAP) level” value (MCF7, 3 h) was 102, the “P-317 (ULK1) level” value (MCF7, 3 h) was 109 and the “P-397 (YAP) level” value (MCF7, 3 h) was 96. The “P-757 (ULK1) level” value (MCF7, 3 h) was 98, the “P-909 (LATS1/2) level” value (MCF7, 3 h) was 99 and the “P-1079 (LATS1/2) level” value (MCF7, 3 h) was 109. For the same compound, the P-AMPKa level (MCF7, 3 h) was 112, the P-ATG13 level (MCF7, 3 h) was 116# and the P-ATM level (MCF7, 3 h) was 105. The P-ERBB1 level (MCF7, 3 h) was 100, the P-ERBB2 level (MCF7, 3 h) was 99 and the P-ERBB3 level (MCF7, 3 h) was 111. The P-ERBB4 level (MCF7, 3 h) was 102, the P-ERK level (MCF7, 3 h) was 101 and the P-JAK2 level (MCF7, 3 h) was 101. For the same compound, the P-JNK level (MCF7, 3 h) was 89, the P-KIT level (MCF7, 3 h) was 100 and the P-MET level (MCF7, 3 h) was 100. The P-NFkB level (MCF7, 3 h) was 100, the P-PDGFRb level (MCF7, 3 h) was 103 and the P-PERK level (MCF7, 3 h) was 109. For the same compound, the “P-S2448 (mTOR) level” value (MCF7, 3 h) was 98, the “P-S2481 (mTOR) level” value (MCF7, 3 h) was 98 and the “P-T308 (AKT) level” value (MCF7, 3 h) was 96. For the same compound, the “P-Y694 (STAT5) level” value (MCF7, 3 h) was 98, the “P-Y705 (STAT3) level” value (MCF7, 3 h) was 98 and the P-eIF2a level (MCF7, 3 h) was 107. The P-p38 level (MCF7, 3 h) was 97, the “P-p70 T389 level” value (MCF7, 3 h) was 105 and the PD-L1 level (MCF7, 3 h) was 100. The PD-L2 level (MCF7, 3 h) was 100, the PDGFRb level (MCF7, 3 h) was 100 and the PERK level (MCF7, 3 h) was 101. The PP1 level (MCF7, 3 h) was 98, the PTEN level (MCF7, 3 h) was 103 and the STAT3 level (MCF7, 3 h) was 100. It also gave an STAT5 level (MCF7, 3 h) of 100, a TAZ level (MCF7, 3 h) of 101 and a ULK1 level (MCF7, 3 h) of 100. For the same compound, the “Y416 (c-SRC) level” value (MCF7, 3 h) was 100, the “Y527 (c-SRC) level” value (MCF7, 3 h) was 98 and the YAP level (MCF7, 3 h) was 99. The c-KIT level (MCF7, 3 h) was 100, the c-MET level (MCF7, 3 h) was 91 and the c-SRC level (MCF7, 3 h) was 100. It also gave an eIF2a level (MCF7, 3 h) of 99, a mTOR level (MCF7, 3 h) of 100 and a p38 level (MCF7, 3 h) of 101. For the same compound, the “p70 S6K level” value (MCF7, 3 h) was 99, the AKT level (MCF7, 6 h) was 100 and the AMPKa level (MCF7, 6 h) was 100. The ATG5 level (MCF7, 6 h) was 114#, the ATG13 level (MCF7, 6 h) was 101 and the ATM level (MCF7, 6 h) was 99. The BAK level (MCF7, 6 h) was 109, the BAX level (MCF7, 6 h) was 95 and the BCL-XL level (MCF7, 6 h) was 94. The BIM level (MCF7, 6 h) was 113#, the Beclin1 level (MCF7, 6 h) was 117# and the CD95 level (MCF7, 6 h) was 100. The CHOP level (MCF7, 6 h) was 116#, the “Cyclin D level” value (MCF7, 6 h) was 108 and the “Cyclin E level” value (MCF7, 6 h) was 104. The ER level (MCF7, 6 h) was 91, the ERBB1 level (MCF7, 6 h) was 101 and the ERBB2 level (MCF7, 6 h) was 100. The ERBB3 level (MCF7, 6 h) was 100, the ERK1/2 level (MCF7, 6 h) was 100 and the ERK2 level (MCF7, 6 h) was 100. For the same compound, the ERRB4 level (MCF7, 6 h) was 100, the FAS-L level (MCF7, 6 h) was 111 and the GRP78 level (MCF7, 6 h) was 115#. For the same compound, the HDAC1 level (MCF7, 6 h) was 99, the HDAC2 level (MCF7, 6 h) was 95 and the HDAC3 level (MCF7, 6 h) was 101. It also gave an HDAC4 level (MCF7, 6 h) of 102, an HDAC5 level (MCF7, 6 h) of 98 and an HDAC6 level (MCF7, 6 h) of 101. For the same compound, the HDAC7 level (MCF7, 6 h) was 101, the HDAC8 level (MCF7, 6 h) was 101 and the HDAC9 level (MCF7, 6 h) was 100. For the same compound, the HDAC10 level (MCF7, 6 h) was 99, the HDAC11 level (MCF7, 6 h) was 99 and the IDO1 level (MCF7, 6 h) was 96. The JAK2 level (MCF7, 6 h) was 100, the JNK1/2 level (MCF7, 6 h) was 100 and the LATS1/2 level (MCF7, 6 h) was 100. The MCL1 level (MCF7, 6 h) was 91, the MHCA level (MCF7, 6 h) was 103 and the NEDD4 level (MCF7, 6 h) was 97. The NFkB level (MCF7, 6 h) was 100, the ODC level (MCF7, 6 h) was 101 and the “P-89 (TAZ) level” value (MCF7, 6 h) was 103. For the same compound, the “P-109 (YAP) level” value (MCF7, 6 h) was 104, the “P-127 (YAP) level” value (MCF7, 6 h) was 104 and the “P-317 (ULK1) level” value (MCF7, 6 h) was 113#. The “P-397 (YAP) level” value (MCF7, 6 h) was 99, the “P-757 (ULK1) level” value (MCF7, 6 h) was 98 and the “P-909 (LATS1/2) level” value (MCF7, 6 h) was 99. For the same compound, the “P-1079 (LATS1/2) level” value (MCF7, 6 h) was 112, the P-AMPKa level (MCF7, 6 h) was 117# and the P-ATG13 level (MCF7, 6 h) was 118#. For the same compound, the P-ATM level (MCF7, 6 h) was 109, the P-ERBB1 level (MCF7, 6 h) was 100 and the P-ERBB2 level (MCF7, 6 h) was 100. For the same compound, the P-ERBB3 level (MCF7, 6 h) was 114#, the P-ERBB4 level (MCF7, 6 h) was 106 and the P-ERK level (MCF7, 6 h) was 99. For the same compound, the P-JAK2 level (MCF7, 6 h) was 100, the P-JNK level (MCF7, 6 h) was 90 and the P-KIT level (MCF7, 6 h) was 100. For the same compound, the P-MET level (MCF7, 6 h) was 96, the P-NFkB level (MCF7, 6 h) was 99 and the P-PDGFRb level (MCF7, 6 h) was 105. For the same compound, the P-PERK level (MCF7, 6 h) was 103, the “P-S2448 (mTOR) level” value (MCF7, 6 h) was 98 and the “P-S2481 (mTOR) level” value (MCF7, 6 h) was 96. For the same compound, the “P-T308 (AKT) level” value (MCF7, 6 h) was 107, the “P-Y694 (STAT5) level” value (MCF7, 6 h) was 98 and the “P-Y705 (STAT3) level” value (MCF7, 6 h) was 98. The P-eIF2a level (MCF7, 6 h) was 110, the P-p38 level (MCF7, 6 h) was 100 and the “P-p70 T389 level” value (MCF7, 6 h) was 110. For the same compound, the PD-L1 level (MCF7, 6 h) was 98, the PD-L2 level (MCF7, 6 h) was 98 and the PDGFRb level (MCF7, 6 h) was 99. The PERK level (MCF7, 6 h) was 101, the PP1 level (MCF7, 6 h) was 99 and the PTEN level (MCF7, 6 h) was 103. For the same compound, the STAT3 level (MCF7, 6 h) was 100, the STAT5 level (MCF7, 6 h) was 100 and the TAZ level (MCF7, 6 h) was 100. For the same compound, the ULK1 level (MCF7, 6 h) was 100, the “Y416 (c-SRC) level” value (MCF7, 6 h) was 101 and the “Y527 (c-SRC) level” value (MCF7, 6 h) was 103. The YAP level (MCF7, 6 h) was 99, the c-KIT level (MCF7, 6 h) was 102 and the c-MET level (MCF7, 6 h) was 99. It also gave a c-SRC level (MCF7, 6 h) of 101, an eIF2a level (MCF7, 6 h) of 100 and a mTOR level (MCF7, 6 h) of 100. For the same compound, the p38 level (MCF7, 6 h) was 103, the “p70 S6K level” value (MCF7, 6 h) was 100 and the P-ERBB3 level (MCF7, 6 h, listed as Palbo) was 114.
